From US20260364080A1, “PYRAZOLO-PYRIMIDINONE COMPOUNDS FOR USE IN METHODS OF INHIBITING WEE1 A KINASE” (Acrivon Therapeutics, Inc., priority 2023, published 2026)

Legend:
[1] = target: T1, recombinant human Wee1A kinase (Homo sapiens, UniProt P30291); assay: Wee1A kinase binding assay (LanthaScreen Eu time-resolved FRET); conditions: 30 nM tracer 178, 5 nM Wee1A kinase, 2 nM Eu-labeled antibody; 60 minutes at room temperature; read-out: Wee1A kinase Binding IC50
T1 construct: full length Wee1 kinase was expressed by baculovirus in insect cells; purchased Invitrogen PV3817; host or cells: insect cells (baculovirus)
How it was run: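 Full-length, baculovirus-expressed GST-tagged Wee1A (5 nM) was mixed with 2 nM Eu-anti-GST antibody, 30 nM kinase tracer 178 and compound (1% DMSO). Buffer was 50 mM HEPES pH 7.5, 10 mM MgCl2, 1 mM EGTA, 0.01% Brij-35, incubated 60 min at room temperature. TR-FRET 665/615 nm emission ratios from duplicates were curve-fitted.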

ACHN cells = assay: Cell Titer Glo viability assay, ACHN cells; assay type: cell-based; conditions: Homo sapiens, 144 h, absolute EC50
How it was run: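 Cells grown in MEM with 10% FCS were seeded at 500 (A427), 400 (ACHN) or 250 (DAOY) per well and treated the next day with compound at 17 to 10 000 nM. Viability relative to untreated control was read at 144 h by CellTiter-Glo 2.0.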

[2] = target: T2, Myt1 kinase (recombinant PMYT-1) (Homo sapiens, UniProt Q99640); assay: Myt1 kinase binding assay (LanthaScreen Eu Kinase Binding Assay); conditions: 3 nM tracer 178, 2.5 nM PMYT-1, 1 nM Eu-labeled antibody; read-out: Myt1 kinase Binding IC50
T2 construct: full length PMYT-1 was expressed by baculovirus in insect cells; purchased Invitrogen A30984; host or cells: insect cells (baculovirus)
T2 sequence (Q99640 1-499): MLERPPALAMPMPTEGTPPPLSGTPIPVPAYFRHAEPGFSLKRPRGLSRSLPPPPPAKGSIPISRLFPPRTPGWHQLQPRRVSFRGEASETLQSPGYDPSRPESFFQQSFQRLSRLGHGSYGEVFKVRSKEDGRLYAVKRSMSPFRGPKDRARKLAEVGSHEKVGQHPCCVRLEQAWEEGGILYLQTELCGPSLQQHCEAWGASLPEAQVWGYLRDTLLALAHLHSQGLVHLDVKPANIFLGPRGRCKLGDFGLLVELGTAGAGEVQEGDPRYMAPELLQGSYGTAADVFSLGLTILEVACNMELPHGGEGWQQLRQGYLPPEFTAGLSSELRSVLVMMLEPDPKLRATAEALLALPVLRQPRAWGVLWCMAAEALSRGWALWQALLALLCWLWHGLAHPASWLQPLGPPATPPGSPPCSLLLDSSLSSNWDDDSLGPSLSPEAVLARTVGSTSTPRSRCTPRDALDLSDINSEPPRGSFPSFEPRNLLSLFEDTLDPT
How it was run: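 Compound binding to Myt1 kinase was assessed using the LanthaScreen Eu Kinase Binding Assay. This europium-based binding format was applied to quantify how strongly each compound bound to the Myt1 enzyme, and the binding affinity was reported for each compound as an IC50 value.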

[3] = target: T3, Myt1 kinase (CDK1 Thr14 phosphorylation in DAOY medulloblastoma cells) (Homo sapiens, UniProt Q99640); assay: AlphaLISA assay, Myt1 kinase target engagement (phospho-CDK1 Thr14) in DAOY cells; assay type: cell-based; conditions: 4 h treatment, read-out: CDK1 Thr14 Phosphorylation EC50
T3 construct: pCDK1 Thr14 AlphaLISA read-out
T3 sequence (Q99640 1-499): T2 sequence (Q99640 1-499)
How it was run: (§1)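 Cells seeded at 10,000 (DAOY) or 20,000 (ACHN) per well, treated 24 h later for 4 h with compound at 7–5000 nM. Lysates analysed by AlphaLISA SureFire Ultra phospho-CDK1 (Thr14) with donor/acceptor beads; EC50 from dose-response curves.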

[4] = target: T4, Wee1A kinase (CDK1 Tyr15 phosphorylation in ACHN renal cell carcinoma cells) (Homo sapiens, UniProt P30291); assay: High-content imaging of pCdk1 Y15, Wee1A kinase target engagement in ACHN cells; assay type: cell-based; conditions: 4 h treatment, nuclear positivity for pCdk1 Y15 vs DMSO control, read-out: CDK1 Tyr15 Phosphorylation EC50
T4 construct: pCDK1 Tyr15 immunofluorescence read-out
How it was run: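 EC50 values come from the per-well fraction of cells with nuclear pCdk1 Y15 staining, normalised to DMSO control, by automated immunofluorescence imaging. Cells were ACHN renal carcinoma, treated 4 h with compound at 7–5,000 nM or 0.3–200 nM.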

DAOY cells = assay: Cell Titer Glo viability assay, DAOY cells; assay type: cell-based; conditions: Homo sapiens, 144 h, absolute EC50
Method: Each of an ACHN renal cell carcinoma cell line (ATCC) and a DAOY medulloblastoma cell line, and an A427 lung cancer line were cultured in Minimum Essential Medium Eagle supplemented with 10% fetal calf serum (Sigma), 1% Penicillin-Streptomycin and 10 mM HEPES buffer (HyClone). Cell cultures were kept in a humidified incubator at 37 °C and 5% CO2. Cells were routinely tested for Mycoplasma contamination.
ACHN cells, DAOY cells, or A427 cells were seeded at a density of 400, 250, or 500 cells per well respectively, in tissue culture treated 384 well plates (Corning Costar). After overnight incubation, cells were treated with drugs at concentrations ranging from 17 to 10 000 nM. Viability compared to untreated control was assessed at 144 h using Cell Titer Glo assay 2.0 (Promega). […] “NT” means the compounds was not tested in the indicated cells.

[5] = target: T5, Myt1 kinase (CDK1 Thr14 phosphorylation in ACHN renal cell carcinoma cells) (Homo sapiens, UniProt Q99640); assay: AlphaLISA assay, Myt1 kinase target engagement (phospho-CDK1 Thr14) in ACHN cells; assay type: cell-based; conditions: ACHN cells (marked *); 4 h treatment
T5 construct: pCDK1 Thr14 AlphaLISA read-out
T5 sequence (Q99640 1-499): T2 sequence (Q99640 1-499)
How it was run: as §1

T1 sequence (P30291 whole entry): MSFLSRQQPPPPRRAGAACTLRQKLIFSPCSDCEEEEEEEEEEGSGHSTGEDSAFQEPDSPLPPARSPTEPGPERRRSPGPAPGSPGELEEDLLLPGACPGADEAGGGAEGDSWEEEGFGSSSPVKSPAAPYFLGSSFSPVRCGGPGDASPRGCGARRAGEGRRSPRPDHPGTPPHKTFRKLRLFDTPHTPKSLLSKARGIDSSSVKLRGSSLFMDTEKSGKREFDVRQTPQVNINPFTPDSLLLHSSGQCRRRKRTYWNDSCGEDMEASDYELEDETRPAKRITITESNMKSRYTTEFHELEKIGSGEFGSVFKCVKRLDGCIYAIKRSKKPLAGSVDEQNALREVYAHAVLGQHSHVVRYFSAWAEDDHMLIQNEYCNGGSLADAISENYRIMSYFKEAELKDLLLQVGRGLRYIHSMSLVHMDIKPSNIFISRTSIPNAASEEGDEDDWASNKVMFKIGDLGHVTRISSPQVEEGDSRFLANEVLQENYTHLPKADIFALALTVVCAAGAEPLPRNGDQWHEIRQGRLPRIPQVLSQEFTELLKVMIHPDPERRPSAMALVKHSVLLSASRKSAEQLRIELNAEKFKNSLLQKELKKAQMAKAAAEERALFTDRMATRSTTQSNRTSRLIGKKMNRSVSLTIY
T4 sequence (P30291 whole entry): as above

C=CCn1c(=O)c2cnc(Nc3ccc4c(cnn4C)c3)nc2n1-c1cccc(OC2CCNCC2)n1 [Compound 106, 2-allyl-6-(1-methyl-1H-indazol-5-ylamino)-1-[6-(4-piperidyloxy)-2-pyridyl]-1,2-dihydro-3H-1,2,5,7-tetraazainden-3-one]
IC50 [1]: < 10 nM
EC50 (ACHN cells): ≤ 100 nM
IC50 [2]: 20 to 100 nM
EC50 [3]: 200 to 500 nM
EC50 [4]: < 100 nM
EC50 (DAOY cells): 100 to 500 nM

C=CCn1c(=O)c2cnc(Nc3ccnc(C)c3)nc2n1-c1cccc(OC2CCN(C)CC2)n1 [Compound 112, 1-{6-[(1-methylpiperidin-4-yl)oxy]pyridin-2-yl}-6-[(2-methylpyridin-4-yl)amino]-2-(prop-2-en-1-yl)-1H,2H,3H-pyrazolo[3,4-d]pyrimidin-3-one]
IC50 [1]: < 10 nM
EC50 (ACHN cells): ≤ 100 nM
IC50 [2]: 20 to 100 nM
EC50 [3]: 200 to 500 nM
EC50 [4]: < 100 nM
EC50 (DAOY cells): 100 to 500 nM

CN1CCC(Oc2cccc(-n3c4nc(Nc5ccc6c(cnn6C)c5)ncc4c(=O)n3C)n2)CC1 [Compound 121, 2-methyl-6-(1-methyl-1H-indazol-5-ylamino)-1-[6-(1-methyl-4-piperidyloxy)-2-pyridyl]-1,2-dihydro-3H-1,2,5,7-tetraazainden-3-one]
IC50 [1]: < 10 nM
EC50 (ACHN cells): ≤ 100 nM
IC50 [2]: 20 to 100 nM
EC50 [3]: 200 to 500 nM
EC50 [4]: < 100 nM
EC50 (DAOY cells): ≤ 100 nM

C=CCn1c(=O)c2cnc(Nc3cccc(C)c3)nc2n1-c1cccc(OC2CCN(C)CC2)n1 [Compound 191, 2-allyl-1-[6-(1-methyl-4-piperidyloxy)-2-pyridyl]-6-m-toluidino-1,2-dihydro-3H-1,2,5,7-tetraazainden-3-one]
IC50 [1]: < 10 nM
EC50 (ACHN cells): ≤ 100 nM
IC50 [2]: < 20 nM
EC50 [3]: 200 to 500 nM
EC50 [4]: < 100 nM
EC50 (DAOY cells): ≤ 100 nM

C=CCn1c(=O)c2cnc(Nc3ccc(C)nc3)nc2n1-c1cccc(OC2CCN(C)CC2)n1 [Compound 197, 2-allyl-1-[6-(1-methyl-4-piperidyloxy)-2-pyridyl]-6-(6-methyl-3-pyridylamino)-1,2-dihydro-3H-1,2,5,7-tetraazainden-3-one]
IC50 [1]: < 10 nM
EC50 (ACHN cells): ≤ 100 nM
IC50 [2]: 20 to 100 nM
EC50 [3]: 500 to 1000 nM
EC50 [4]: < 100 nM
EC50 (DAOY cells): ≤ 100 nM

C=CCn1c(=O)c2cnc(Nc3cc(C)cc(F)c3)nc2n1-c1cccc(OC2CCN(C)CC2)n1 [Compound 205, 6-[(3-fluoro-5-methylphenyl)amino]-1-{6-[(1-methylpiperidin-4-yl)oxy]pyridin-2-yl}-2-(prop-2-en-1-yl)-1H,2H,3H-pyrazolo[3,4-d]pyrimidin-3-one]
IC50 [1]: < 10 nM
EC50 (ACHN cells): ≤ 100 nM
IC50 [2]: 20 to 100 nM
EC50 [3]: 200 to 500 nM
EC50 [4]: < 100 nM
EC50 (DAOY cells): 100 to 500 nM

C=CCn1c(=O)c2cnc(Nc3ccc(F)cc3)nc2n1-c1cccc(OC2CCN(C)CC2)n1 [Compound 207, 6-[(4-fluorophenyl)amino]-1-{6-[(1-methylpiperidin-4-yl)oxy]pyridin-2-yl}-2-(prop-2-en-1-yl)-1H,2H,3H-pyrazolo[3,4-d]pyrimidin-3-one]
IC50 [1]: < 10 nM
EC50 (ACHN cells): ≤ 100 nM
IC50 [2]: 20 to 100 nM
EC50 [3]: 500 to 1000 nM
EC50 [4]: < 100 nM
EC50 (DAOY cells): ≤ 100 nM

C=CCn1c(=O)c2cnc(Nc3ccc4scnc4c3)nc2n1-c1cccc(OC2CCN(C)CC2)n1 [Compound 209, 2-allyl-6-(benzo[d]thiazol-5-ylamino)-1-(6-((1-methylpiperidin-4-yl)oxy)pyridin-2-yl)-1,2-dihydro-3H-pyrazolo[3,4-d]pyrimidin-3-one]
IC50 [1]: < 10 nM
EC50 (ACHN cells): ≤ 100 nM
IC50 [2]: < 20 nM
EC50 [3]: < 200 nM
EC50 [4]: < 100 nM
EC50 (DAOY cells): ≤ 100 nM

C=CCn1c(=O)c2cnc(Nc3ccc4oc(C)nc4c3)nc2n1-c1cccc(OC2CCN(C)CC2)n1 [Compound 231, 2-allyl-6-(2-methyl-1,3-benzoxazol-5-ylamino)-1-[6-(1-methyl-4-piperidyloxy)-2-pyridyl]-1,2-dihydro-3H-1,2,5,7-tetraazainden-3-one]
IC50 [1]: < 10 nM
EC50 (ACHN cells): ≤ 100 nM
IC50 [2]: < 20 nM
EC50 [3]: 200 to 500 nM
EC50 [4]: < 100 nM
EC50 (DAOY cells): ≤ 100 nM

C=CCn1c(=O)c2cnc(Nc3ccc4c(ccn4C)c3)nc2n1-c1cccc(OC2CCNCC2)n1 [Compound 236, 2-allyl-6-((1-methyl-1H-indol-5-yl)amino)-1-(6-(piperidin-4-yloxy)pyridin-2-yl)-1,2-dihydro-3H-pyrazolo[3,4-d]pyrimidin-3-one]
IC50 [1]: < 10 nM
EC50 (ACHN cells): ≤ 100 nM
IC50 [2]: 20 to 100 nM
EC50 [3]: 200 to 500 nM
EC50 [4]: < 100 nM
EC50 (DAOY cells): ≤ 100 nM

C=CCn1c(=O)c2cnc(Nc3ccc4c(cnn4C(C)C)c3)nc2n1-c1cccc(OC2CCN(C)CC2)n1 [Compound 248, 2-allyl-6-(1-isopropyl-1H-indazol-5-ylamino)-1-[6-(1-methyl-4-piperidyloxy)-2-pyridyl]-1,2-dihydro-3H-1,2,5,7-tetraazainden-3-one]
IC50 [1]: < 10 nM
EC50 (ACHN cells): ≤ 100 nM
IC50 [2]: < 20 nM
EC50 [3]: < 200 nM
EC50 [4]: < 100 nM
EC50 (DAOY cells): ≤ 100 nM

C=CCn1c(=O)c2cnc(Nc3ccc4ncsc4c3)nc2n1-c1cccc(OC2CCN(C)CC2)n1 [Compound 303, 2-allyl-6-(1,3-benzothiazol-6-ylamino)-1-[6-(1-methyl-4-piperidyloxy)-2-pyridyl]-1,2-dihydro-3H-1,2,5,7-tetraazainden-3-one]
IC50 [1]: < 10 nM
EC50 (ACHN cells): ≤ 100 nM
IC50 [2]: < 20 nM
EC50 [3]: 200 to 500 nM
EC50 [4]: < 100 nM
EC50 (DAOY cells): 100 to 500 nM

C=CCn1c(=O)c2cnc(Nc3ccc4c(c3)OCO4)nc2n1-c1cccc(OC2CCN(C)CC2)n1 [Compound 307, 2-allyl-6-(2H-1,3-benzodioxol-5-ylamino)-1-[6-(1-methyl-4-piperidyloxy)-2-pyridyl]-1,2-dihydro-3H-1,2,5,7-tetraazainden-3-one]
IC50 [1]: < 10 nM
EC50 (ACHN cells): ≤ 100 nM
IC50 [2]: 20 to 100 nM
EC50 [3]: 200 to 500 nM
EC50 [4]: < 100 nM
EC50 (DAOY cells): ≤ 100 nM

C=CCn1c(=O)c2cnc(Nc3ccc4c(c3)ncn4C(C)C)nc2n1-c1cccc(OC2CCN(C)CC2)n1 [Compound 400, 2-allyl-6-((1-isopropyl-1H-benzo[d]imidazol-5-yl)amino)-1-(6-((1-methylpiperidin-4-yl)oxy)pyridin-2-yl)-1,2-dihydro-3H-pyrazolo[3,4-d]pyrimidin-3-one]
IC50 [1]: < 10 nM
EC50 (ACHN cells): ≤ 100 nM
EC50 [5]: 200 to 500 nM
IC50 [2]: < 20 nM
EC50 [4]: < 100 nM
